# Target: FLNA pentapeptide of SEQ ID NO: 1 (Bn-VAKGL) (Homo sapiens, UniProt P21333)
# Test: FITC-NLX-based FLNA screening assay (inhibition of FITC-naloxone binding to Bn-VAKGL on streptavidin plates)
# Settings: read-out: Percent Binding Inhibition, FLNA-binding compound 0.01 μM; 10 nM FITC-NLX
row,Structure (SMILES),inhibition at 0.01 µM
1,CC(C)c1ccc(S(=O)(=O)N2CCC3(CC2)OCCN3S(=O)(=O)c2ccc(C(C)C)cc2)cc1 [Compound C0007],40.5%
2,COc1ccc(N2CCN(CC(O)COC3CC(C)CCC3C(C)C)CC2)c(OC)c1 (stereo not drawn) [Compound A0012],39.7%
3,O=S(=O)(c1cccc2cccnc12)N1CCC2(CC1)OCCN2S(=O)(=O)c1cccc2cccnc12 [Compound C0143M],45.3%

# Same assay, conditions: read-out: Percent Binding Inhibition, FLNA-binding compound 0.1 μM; 10 nM FITC-NLX
row,Structure (SMILES),inhibition at 0.1 µM
1,CC(C)c1ccc(S(=O)(=O)N2CCC3(CC2)OCCN3S(=O)(=O)c2ccc(C(C)C)cc2)cc1 [Compound C0007],46.3%
2,COc1ccc(N2CCN(CC(O)COC3CC(C)CCC3C(C)C)CC2)c(OC)c1 (stereo not drawn) [Compound A0012],49.6%
3,O=S(=O)(c1cccc2cccnc12)N1CCC2(CC1)OCCN2S(=O)(=O)c1cccc2cccnc12 [Compound C0143M],48.4%

# Same assay, conditions: read-out: Percent Binding Inhibition, FLNA-binding compound 1 μM; 10 nM FITC-NLX
row,Structure (SMILES),inhibition at 1 µM
1,CC(C)c1ccc(S(=O)(=O)N2CCC3(CC2)OCCN3S(=O)(=O)c2ccc(C(C)C)cc2)cc1 [Compound C0007],48.9%
2,COc1ccc(N2CCN(CC(O)COC3CC(C)CCC3C(C)C)CC2)c(OC)c1 (stereo not drawn) [Compound A0012],54.4%
3,O=S(=O)(c1cccc2cccnc12)N1CCC2(CC1)OCCN2S(=O)(=O)c1cccc2cccnc12 [Compound C0143M],57.8%

# System: mu opiate receptor (MOR)
# Test: MOR agonist activity using [35S]GTPγS binding assay in striatal membranes
# Type: biochemical
# Settings: 0.1 μM compound
# In short: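 Striatal membranes (200 μg) were preincubated 5 min at 30 °C in HEPES pH 7.5 with 100 mM NaCl, 1 mM MgCl2 and 0.5 nM [35S]GTPγS, then 5 min more with 0.1–10 μM compound. Gαo was immunoprecipitated and bound radioactivity counted by scintillation.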
row,Structure (SMILES),"MOR agonist activity ([35S]GTPγS binding), FLNA-Binding Compound as Agonist 0.1 μM"
1,COc1ccc(N2CCN(CC(O)COC3CC(C)CCC3C(C)C)CC2)c(OC)c1 (stereo not drawn) [Compound A0012],149.3%

# Same assay, conditions: 0.1 μM compound relative to DAMGO
row,Structure (SMILES),% DAMGO (0.1 μM)
1,COc1ccc(N2CCN(CC(O)COC3CC(C)CCC3C(C)C)CC2)c(OC)c1 (stereo not drawn) [Compound A0012],99.9%

# Same assay, conditions: 1 μM compound
row,Structure (SMILES),"MOR agonist activity ([35S]GTPγS binding), FLNA-Binding Compound as Agonist 1 μM"
1,COc1ccc(N2CCN(CC(O)COC3CC(C)CCC3C(C)C)CC2)c(OC)c1 (stereo not drawn) [Compound A0012],185.7%

# Same assay, conditions: 1 μM compound + 1 μM β-funaltrexamine
row,Structure (SMILES),"MOR agonist activity ([35S]GTPγS binding), FLNA-Binding Compound as Agonist 1 μM + BFNA"
1,COc1ccc(N2CCN(CC(O)COC3CC(C)CCC3C(C)C)CC2)c(OC)c1 (stereo not drawn) [Compound A0012],122.4%

# Same assay, conditions: 1 μM compound + BFNA relative to DAMGO + BFNA
row,Structure (SMILES),% DAMGO + BFNA
1,COc1ccc(N2CCN(CC(O)COC3CC(C)CCC3C(C)C)CC2)c(OC)c1 (stereo not drawn) [Compound A0012],461.9%

# Same assay, conditions: 1 μM compound relative to DAMGO
row,Structure (SMILES),% DAMGO (1 μM)
1,COc1ccc(N2CCN(CC(O)COC3CC(C)CCC3C(C)C)CC2)c(OC)c1 (stereo not drawn) [Compound A0012],80.7%

# Same assay, conditions: Series C-1; 0.1 μM compound, relative to DAMGO
row,Structure (SMILES),% DAMGO (0.1 μM)
1,CC(C)c1ccc(S(=O)(=O)N2CCC3(CC2)OCCN3S(=O)(=O)c2ccc(C(C)C)cc2)cc1 [Compound C0007],46.0%
2,O=S(=O)(c1cccc2cccnc12)N1CCC2(CC1)OCCN2S(=O)(=O)c1cccc2cccnc12 [Compound C0143M],47.1%

# Same assay, conditions: Series C-1; 0.1 μM compound; [35S]GTPγS binding to Gαo, striatal membranes
row,Structure (SMILES),Concentration of FLNA-Binding Compound as Agonist 0.1 μM
1,CC(C)c1ccc(S(=O)(=O)N2CCC3(CC2)OCCN3S(=O)(=O)c2ccc(C(C)C)cc2)cc1 [Compound C0007],79.1%
2,O=S(=O)(c1cccc2cccnc12)N1CCC2(CC1)OCCN2S(=O)(=O)c1cccc2cccnc12 [Compound C0143M],81.0%

# Same assay, conditions: Series C-1; 1 μM compound + 1 μM β-FNA
row,Structure (SMILES),Concentration of FLNA-Binding Compound as Agonist 1 μM + BFNA
1,CC(C)c1ccc(S(=O)(=O)N2CCC3(CC2)OCCN3S(=O)(=O)c2ccc(C(C)C)cc2)cc1 [Compound C0007],10.9%
2,O=S(=O)(c1cccc2cccnc12)N1CCC2(CC1)OCCN2S(=O)(=O)c1cccc2cccnc12 [Compound C0143M],86.5%

# Same assay, conditions: Series C-1; 1 μM compound + β-FNA, relative to DAMGO + BFNA
row,Structure (SMILES),% DAMGO + BFNA
1,CC(C)c1ccc(S(=O)(=O)N2CCC3(CC2)OCCN3S(=O)(=O)c2ccc(C(C)C)cc2)cc1 [Compound C0007],17.0%
2,O=S(=O)(c1cccc2cccnc12)N1CCC2(CC1)OCCN2S(=O)(=O)c1cccc2cccnc12 [Compound C0143M],94.7%

# Same assay, conditions: Series C-1; 1 μM compound, relative to DAMGO
row,Structure (SMILES),% DAMGO (1 μM)
1,CC(C)c1ccc(S(=O)(=O)N2CCC3(CC2)OCCN3S(=O)(=O)c2ccc(C(C)C)cc2)cc1 [Compound C0007],70.5%
2,O=S(=O)(c1cccc2cccnc12)N1CCC2(CC1)OCCN2S(=O)(=O)c1cccc2cccnc12 [Compound C0143M],59.3%

# Same assay, conditions: Series C-1; 1 μM compound; [35S]GTPγS binding to Gαo, striatal membranes
row,Structure (SMILES),Concentration of FLNA-Binding Compound as Agonist 1 μM
1,CC(C)c1ccc(S(=O)(=O)N2CCC3(CC2)OCCN3S(=O)(=O)c2ccc(C(C)C)cc2)cc1 [Compound C0007],195.0%
2,O=S(=O)(c1cccc2cccnc12)N1CCC2(CC1)OCCN2S(=O)(=O)c1cccc2cccnc12 [Compound C0143M],193.3%

# Same assay, conditions: Series C-2; 0.1 μM compound, relative to DAMGO
row,Structure (SMILES),% DAMGO (0.1 μM)
1,O=S(=O)(c1cccc2cccnc12)N1CCC2(CC1)OCCN2S(=O)(=O)c1cccc2cccnc12 [Compound C0143M],47.1%

# Same assay, conditions: Series C-2; 0.1 μM compound; [35S]GTPγS binding to Gαo, striatal membranes
row,Structure (SMILES),Concentration of FLNA-Binding Compound as Agonist 0.1 μM
1,O=S(=O)(c1cccc2cccnc12)N1CCC2(CC1)OCCN2S(=O)(=O)c1cccc2cccnc12 [Compound C0143M],81.0%

# Same assay, conditions: Series C-2; 1 μM compound + 1 μM β-FNA
row,Structure (SMILES),Concentration of FLNA-Binding Compound as Agonist 1 μM + BFNA
1,O=S(=O)(c1cccc2cccnc12)N1CCC2(CC1)OCCN2S(=O)(=O)c1cccc2cccnc12 [Compound C0143M],86.5%

# Same assay, conditions: Series C-2; 1 μM compound + β-FNA, relative to DAMGO + BFNA
row,Structure (SMILES),% DAMGO + BFNA
1,O=S(=O)(c1cccc2cccnc12)N1CCC2(CC1)OCCN2S(=O)(=O)c1cccc2cccnc12 [Compound C0143M],94.7%

# Same assay, conditions: Series C-2; 1 μM compound, relative to DAMGO
row,Structure (SMILES),% DAMGO (1 μM)
1,O=S(=O)(c1cccc2cccnc12)N1CCC2(CC1)OCCN2S(=O)(=O)c1cccc2cccnc12 [Compound C0143M],59.3%

# Same assay, conditions: Series C-2; 1 μM compound; [35S]GTPγS binding to Gαo, striatal membranes
row,Structure (SMILES),Concentration of FLNA-Binding Compound as Agonist 1 μM
1,O=S(=O)(c1cccc2cccnc12)N1CCC2(CC1)OCCN2S(=O)(=O)c1cccc2cccnc12 [Compound C0143M],193.3%
